{
  "source": "ChEMBL document CHEMBL2074541",
  "about": "“TP-search Transporter Database” (Hepatology, 1999)",
  "molecules": {"B1": {"name": "Solute carrier organic anion transporter family member 1A1 (Rattus norvegicus) (protein)", "chain": "MEETEKKIATQEGRLFSKMKVFLLSLTCACLTKSLSGVYMNSMLTQIERQFDISTSVAGLINGSFEIGNLFFIVFVSYFGTKLHRPVVIGIGCVIMGLGCLLMSLPHFFMGRYEYETTISPTGNLSSNSFLCMENRTQTLKPTQDPAECVKEMKSLMWICVMVGNIIRGIGETPIVPLGISYIEDFAKSENSPLYIGILEMGKVAGPIFGLLLGSYCAQIYVDIGSVNTDDLTITPSDTRWVGAWWIGFLVCAGVNILTSIPFFFLPKALPKKGQQENVAVTKDGKVEKYGGQAREENLGITKDFLTFMKRLFCNPIYMLFILTSVLQVNGFINKFTFLPKYLEQQYGKSTAEAIFLIGVYSLPPICLGYLIGGFIMKKFKITVKKAAYLAFCLSVFEYLLFLCHFMLTCDNAAVAGLTTSYKGVQHQLHVESKVLADCNTRCSCSTNTWDPVCGDNGVAYMSACLAGCKKFVGTGTNMVFQDCSCIQSLGNSSAVLGLCKKGPECANRLQYFLILTIIISFIYSLTAIPGYMVFLRCVKSEEKSLGVGLHTFCIRVFAGIPAPVYFGALIDRTCLHWGTLKCGQRGACRMYDINSFRHIYLGLPIALRGSSYLPAFFILILMRKFQFPGDIDSSATDHTEMMLGEKESEHTDVHGSPQVENDGELKTKL"}},
  "format_in_all_cases": "functional, cell-based",
  "key": {"[1]": {"biological_target": "T1, Solute carrier organic anion transporter family member 1A1 (Rattus norvegicus, UniProt P46720)", "T1 sequence (P46720 whole entry)": "B1 chain", "experiment": "(§1) TP_TRANSPORTER: uptake in Oatp1-expressing HeLa cells", "settings": "[…]"}, "[2]": {"substrate": "C[C@H](CCC(=O)NCCS(=O)(=O)O)C1CC[C@H]2[C@@H]3C[C@H](O)[C@@H]4C[C@H](O)CC[C@]4(C)[C@H]3CC[C@]12C", "experiment": "as §1"}, "[3]": {"substrate": "C[C@H](CCC(=O)NCCS(=O)(=O)O)[C@H]1CC[C@H]2[C@@H]3[C@H](O)C[C@@H]4C[C@H](O)CC[C@]4(C)[C@H]3CC[C@]12C", "experiment": "as §1"}, "[4]": {"substrate": "O=C1OC(c2ccc(O)c(S(=O)(=O)O)c2)(c2ccc(O)c(S(=O)(=O)O)c2)c2c(Br)c(Br)c(Br)c(Br)c21", "experiment": "as §1"}},
  "data": [
    {"molecule": "C[C@H](CCC(=O)O)[C@H]1CC[C@H]2[C@@H]3C[C@H](O)[C@@H]4C[C@H](O)CC[C@]4(C)[C@H]3CC[C@]12C", "note": "[HYODEOXYCHOLIC_ACID]", "values": [
      {"measurement": "Activity", "setting": "[1]", "result": "substrate [+]"}
    ]},
    {"molecule": "C[C@H](CCC(=O)NCCS(=O)(=O)O)[C@H]1CC[C@H]2[C@@H]3CC[C@H]4C[C@H](O)CC[C@]4(C)[C@H]3C[C@@H](O)[C@]12C", "note": "[TAUROLAGODEOXYCHOLATE]", "values": [
      {"measurement": "Activity", "setting": "[1]", "result": "substrate [+]"}
    ]},
    {"molecule": "C[C@H](CCC(=O)NCCS(=O)(=O)O)[C@H]1CC[C@H]2[C@@H]3C[C@@H](O)[C@@H]4C[C@H](O)CC[C@]4(C)[C@H]3CC[C@]12C", "note": "[TAUROMUROCHOLATE]", "values": [
      {"measurement": "Activity", "setting": "[1]", "result": "substrate [+]"}
    ]},
    {"molecule": "B1", "values": [
      {"measurement": "Km", "setting": "[2]", "result": 7.5, "unit": "µM"},
      {"measurement": "Km", "setting": "[3]", "result": 4.9, "unit": "µM"},
      {"measurement": "Km", "setting": "[4]", "result": 3.3, "unit": "µM"}
    ]}
  ]
}
